Consider nine molecules from paper PMC9706024, “Chromenone Derivatives as Monoamine Oxidase Inhibitors from Marine-Derived MAR4 Clade Streptomyces sp. CNQ-031” (Journal of Microbiology and Biotechnology, 2021).

Experiment [1] addresses T1, human MAO-B (Homo sapiens, UniProt P27338).
T1 construct: purchased Sigma-Aldrich (USA)
T1 sequence (P27338 1-520): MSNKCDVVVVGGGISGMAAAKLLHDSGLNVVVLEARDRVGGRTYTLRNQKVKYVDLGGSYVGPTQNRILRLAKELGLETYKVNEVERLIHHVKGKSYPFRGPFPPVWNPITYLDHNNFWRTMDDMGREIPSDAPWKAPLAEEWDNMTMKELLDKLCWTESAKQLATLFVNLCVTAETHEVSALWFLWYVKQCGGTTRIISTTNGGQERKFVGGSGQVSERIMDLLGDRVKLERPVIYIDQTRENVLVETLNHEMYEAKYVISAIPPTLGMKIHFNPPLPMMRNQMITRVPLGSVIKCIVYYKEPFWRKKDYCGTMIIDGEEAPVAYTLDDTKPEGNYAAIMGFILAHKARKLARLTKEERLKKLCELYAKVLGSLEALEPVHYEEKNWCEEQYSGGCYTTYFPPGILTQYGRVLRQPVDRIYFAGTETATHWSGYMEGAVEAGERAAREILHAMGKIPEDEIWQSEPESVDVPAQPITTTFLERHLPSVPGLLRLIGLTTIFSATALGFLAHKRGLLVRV
As to the kind of experiment: biochemical. It counts as biochemical. The note with it: for remaining activity at 10 µM / IC50: means ± SD of duplicate experiments; for remaining activity at 10 µM: read-out: Residual activity at 10 µM (%) MAO-B. The method, then: (§1) All other chemicals were of reagent grade.
(§2) MAO-A and MAO-B inhibitory activities were determined using a continuous spectrophotometric method as described previously. […] AChE activities were assayed as described by Ellman et al., with slight modification. The inhibitory activities of AChE and BChE were measured after the enzyme was preincubated with inhibitors for 15 min and before adding DTNB and the substrate (ATCI and BTCI, respectively). […] Reaction rates were expressed as changes in absorbance per minute.

The target in experiment [2] is T2, Recombinant human MAO-A (Homo sapiens, UniProt P21397).
T2 construct: purchased Sigma-Aldrich (USA)
T2 sequence (P21397 1-527): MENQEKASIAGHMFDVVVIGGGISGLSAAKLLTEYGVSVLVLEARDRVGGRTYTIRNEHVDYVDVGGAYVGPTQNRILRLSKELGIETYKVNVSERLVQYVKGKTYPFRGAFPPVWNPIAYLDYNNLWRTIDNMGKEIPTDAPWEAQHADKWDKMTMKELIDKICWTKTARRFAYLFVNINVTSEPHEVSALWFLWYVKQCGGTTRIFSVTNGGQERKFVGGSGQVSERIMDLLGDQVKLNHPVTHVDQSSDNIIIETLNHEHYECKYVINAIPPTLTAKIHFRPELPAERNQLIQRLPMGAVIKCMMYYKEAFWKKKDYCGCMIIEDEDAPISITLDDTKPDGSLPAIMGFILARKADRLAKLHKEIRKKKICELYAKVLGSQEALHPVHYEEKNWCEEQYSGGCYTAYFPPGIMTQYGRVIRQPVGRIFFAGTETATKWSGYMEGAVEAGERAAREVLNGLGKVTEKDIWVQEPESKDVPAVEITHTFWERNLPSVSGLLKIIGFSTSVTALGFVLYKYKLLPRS
The experiment in a line: biochemical. It counts as biochemical. The note with it: for remaining activity at 10 µM / IC50: means ± SD of duplicate experiments; for remaining activity at 10 µM: read-out: Residual activity at 10 µM (%) MAO-A; for SI (selectivity index): ratio of high IC50/low IC50 for MAO inhibition (compound 1: MAO-A versus MAO-B; compound 2: MAO-B versus MAO-A). The method, then:
as §1, §2

The next experiment deals with T3, BACE-1 (Homo sapiens, UniProt P56817).
T3 construct: purchased Sigma-Aldrich (USA)
The experiment in a line: BACE-1 Activity Detection Kit, fluorescence assay. It counts as biochemical. The note with it: means ± SD of duplicate experiments, read-out: Residual activity at 10 µM (%) BACE-1.

Experiment [3] has as its target T2, Recombinant human MAO-A. As to the kind of experiment: Reversibility of MAO-A inhibition by dialysis. The note with it: for Reversibility of MAO-A inhibition: dialysis; for Relative activity of MAO-A, dialyzed (AD) / Relative activity of MAO-A, undialyzed (AU): inhibitor at twice the IC50, preincubated 30 min; for Relative activity of MAO-A, dialyzed (AD): after dialysis. It counts as biochemical. The method, then: (§3) After the compounds or reference inhibitors were preincubated with MAOs for 30 min, residual activities for undialyzed and dialyzed samples were measured. The relative values for undialyzed (AU) and dialyzed (AD) activities were then calculated, and the reversibilities were determined by comparing the AU and AD values of the inhibitors with those of the references.
(§4) Results are the averages of experiments performed in duplicate.

In a further experiment the target is T4, BChE from equine serum (Equus caballus, UniProt P81908).
T4 construct: BChE from equine serum; purchased Sigma-Aldrich (USA); host or cells: equine serum
As to the kind of experiment: biochemical. The note with it: means ± SD of duplicate experiments, read-out: Residual activity at 10 µM (%) BChE. The method, then:
as §1, §2

For experiment [4], the target named is T5, AChE from Electrophorus electricus (Electrophorus electricus, UniProt O42275).
T5 construct: AChE from Electrophorus electricus; purchased Sigma-Aldrich (USA)
The experiment in a line: biochemical. The note with it: means ± SD of duplicate experiments; for remaining activity at 10 µM: read-out: Residual activity at 10 µM (%) AChE.

The target in experiment [5] is T2, Recombinant human MAO-A. The experiment in a line: MAO-A inhibition kinetics (Lineweaver-Burk and secondary plots). It counts as biochemical. The note with it: for Mode of MAO-A inhibition: Lineweaver-Burk plots; for Ki: secondary plots of Lineweaver-Burk slopes, kynuramine 0.0075-0.12 mM. The method, then:
(§5) Kinetic parameters, inhibition types, and […] (Ki) values of potent MAO-A and MAO-B inhibitors (i.e., compound 1 for MAO-A; compound 2 for MAO-A and MAO-B) were determined, as previously described. […]; Inhibitory patterns and Ki values were determined using Lineweaver-Burk plots and secondary plots of their slopes.
(§6) Modes of MAO-A inhibition by compound 1 and modes of MAO-A and MAO-B inhibition by compound 2 were investigated using Lineweaver-Burk plots. […].
(§7) Fig. 3 Lineweaver-Burk plots of monoamine oxidase (MAO)-A inhibition by compound 1 (A) and of MAOA and MAO-B inhibition by compound 2 (C and E for respective MOA isoforms) as well as their respective secondary plots, as slopes of Lineweaver-Burk plots vs. inhibitor concentrations (B, D, and F). […]. […] The initial velocity was expressed as an increase in absorbance per min.

Experiment [6] concerns the target T1, human MAO-B. The experiment in a line: Reversibility of MAO-B inhibition by dialysis. It counts as biochemical. The method, then:
as §3, §4

Experiment [7] concerns the target T1, human MAO-B. The experiment in a line: MAO-B inhibition kinetics (Lineweaver-Burk and secondary plots). It counts as biochemical. The method, then: as §5, §6, §7
In another experiment the test system is MAO-B. The note with it: cited from earlier work.
In the next experiment the test system is MAO-A. The note with it: cited from earlier work.

“Also recorded” adds a separate entry of the source.

T4 sequence (P81908 whole entry): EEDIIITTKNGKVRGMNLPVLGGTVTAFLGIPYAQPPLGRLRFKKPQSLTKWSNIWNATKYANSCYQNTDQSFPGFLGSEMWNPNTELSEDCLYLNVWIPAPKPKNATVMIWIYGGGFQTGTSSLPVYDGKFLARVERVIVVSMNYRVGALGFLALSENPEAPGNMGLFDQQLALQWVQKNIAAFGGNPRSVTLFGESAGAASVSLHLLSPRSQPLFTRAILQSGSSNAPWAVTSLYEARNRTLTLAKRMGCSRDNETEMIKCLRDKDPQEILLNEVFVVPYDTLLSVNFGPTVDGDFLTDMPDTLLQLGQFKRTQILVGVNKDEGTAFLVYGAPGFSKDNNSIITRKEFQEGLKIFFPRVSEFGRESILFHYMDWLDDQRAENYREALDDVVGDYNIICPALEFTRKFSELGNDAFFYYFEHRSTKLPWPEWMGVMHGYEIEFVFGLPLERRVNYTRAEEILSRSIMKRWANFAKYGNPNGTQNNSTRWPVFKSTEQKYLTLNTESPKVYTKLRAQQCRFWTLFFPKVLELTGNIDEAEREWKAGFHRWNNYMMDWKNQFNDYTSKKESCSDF
T5 sequence (O42275 24-633): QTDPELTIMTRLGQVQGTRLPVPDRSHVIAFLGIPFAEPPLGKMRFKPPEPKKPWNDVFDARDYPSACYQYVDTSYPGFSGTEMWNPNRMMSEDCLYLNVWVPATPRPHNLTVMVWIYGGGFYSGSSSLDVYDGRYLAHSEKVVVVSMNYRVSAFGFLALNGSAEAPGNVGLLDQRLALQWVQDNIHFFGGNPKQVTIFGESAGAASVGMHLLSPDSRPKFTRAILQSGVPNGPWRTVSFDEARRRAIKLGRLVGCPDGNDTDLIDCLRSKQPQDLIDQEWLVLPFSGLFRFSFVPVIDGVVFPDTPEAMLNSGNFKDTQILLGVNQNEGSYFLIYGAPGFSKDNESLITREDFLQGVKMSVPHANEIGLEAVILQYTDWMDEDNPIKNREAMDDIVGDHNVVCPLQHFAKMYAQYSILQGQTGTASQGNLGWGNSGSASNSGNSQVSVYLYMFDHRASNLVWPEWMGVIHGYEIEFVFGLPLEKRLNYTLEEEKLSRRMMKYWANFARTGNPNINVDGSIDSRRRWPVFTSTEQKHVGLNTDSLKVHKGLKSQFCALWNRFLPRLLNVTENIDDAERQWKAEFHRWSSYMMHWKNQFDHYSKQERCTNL
T3 sequence (P56817 46-501, species assumed): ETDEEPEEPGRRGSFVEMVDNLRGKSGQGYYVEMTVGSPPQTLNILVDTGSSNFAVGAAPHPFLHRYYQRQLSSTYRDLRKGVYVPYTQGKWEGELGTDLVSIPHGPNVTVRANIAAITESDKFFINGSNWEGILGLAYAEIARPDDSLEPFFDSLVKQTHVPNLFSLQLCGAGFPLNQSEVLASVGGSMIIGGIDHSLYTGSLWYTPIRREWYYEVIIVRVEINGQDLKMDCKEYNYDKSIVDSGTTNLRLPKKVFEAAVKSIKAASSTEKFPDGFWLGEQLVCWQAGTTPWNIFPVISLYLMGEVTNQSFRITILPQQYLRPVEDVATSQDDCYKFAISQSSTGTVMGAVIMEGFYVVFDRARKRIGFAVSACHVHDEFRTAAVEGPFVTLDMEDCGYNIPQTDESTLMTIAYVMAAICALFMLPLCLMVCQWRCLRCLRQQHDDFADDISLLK

Usually IC50 stands for the point on the concentration scale where inhibition reaches its midpoint. By Ki is commonly meant a measure of affinity in units of concentration, obtained from inhibition or displacement. On to `CC(C)c1cc(=O)c2c(O)cc(O)cc2o1` [Compound 1, 5,7-dihydroxy-2-isopropyl-4H-chromen-4-one], for which, on human MAO-B [1], the remaining activity at 10 µM is 71.5 ± 5.45% and the IC50 amounted to 27 ± 2.78 µM. In addition, on Recombinant human MAO-A [2], the remaining activity at 10 µM was determined as 25.4 ± 2.24%, the 50% inhibitory concentration (IC50) was found to be 2.7 ± 0.034 µM and the “SI (selectivity index)” value was determined as 10.0. Further, at BACE-1, the remaining activity at 10 µM was 85.8 ± 0.28%. Moreover, on Recombinant human MAO-A [3], the “Reversibility of MAO-A inhibition” value is on record as “reversible inhibitor”; the “Relative activity of MAO-A, dialyzed (AD)” value was found to be 90.9%; the “Relative activity of MAO-A, undialyzed (AU)” value is given as 35.5%. Further, the remaining activity at 10 µM at BChE from equine serum turned out to be 80.7 ± 3.46%. Also, in [4], the remaining activity at 10 µM was determined as 70.5 ± 6.31% and half-maximal inhibition (IC50) was put at 31.7 ± 2.39 µM. Further, at Recombinant human MAO-A [5], the “Mode of MAO-A inhibition” value is reported as “competitive inhibitor” and the Ki came out at 0.94 ± 0.28 µM.
Regarding `CCC(C)c1cc(=O)c2c(O)cc(O)cc2o1` (stereo not shown) [Compound 2, 5,7-dihydroxy-2-(1-methylpropyl)-4H-chromen-4-one], the remaining activity at 10 µM is 34.4 ± 7.95% on human MAO-B [1]; 37.8 ± 0.82% at Recombinant human MAO-A [2]; 98.3 ± 0.27% on BACE-1; 96.4 ± 4.27% on BChE from equine serum; 88.3 ± 2.54% in [4]. The IC50 against human MAO-B [1] was determined as 3.42 ± 1.47 µM; at Recombinant human MAO-A [2], 6.92 ± 0.067 µM. For the same molecule, at Recombinant human MAO-A [2], the “SI (selectivity index)” value came to 2.02. At Recombinant human MAO-A [3], the “Reversibility of MAO-A inhibition” value was “reversible inhibitor”. For the same molecule, the “Relative activity of MAO-A, dialyzed (AD)” value at Recombinant human MAO-A [3] was 79.4%. On Recombinant human MAO-A [3], the “Relative activity of MAO-A, undialyzed (AU)” value amounted to 35.6%. Also, the “Reversibility of MAO-B inhibition” value on human MAO-B [6] (dialysis) is given as “reversible inhibitor”. In addition, on human MAO-B [6] (inhibitor at twice the IC50, preincubated 30 min, after dialysis), the “Relative activity of MAO-B, dialyzed (AD)” value is reported as 76.7%. In addition, the “Relative activity of MAO-B, undialyzed (AU)” value at human MAO-B [6] (inhibitor at twice the IC50, preincubated 30 min, undialyzed) was 34.8%. Besides, at human MAO-B [7] (Lineweaver-Burk plots), the “Mode of MAO-B inhibition” value is on record as “competitive inhibitor”. Also, the inhibition constant Ki amounted to 1.89 ± 0.014 µM at human MAO-B [7] (secondary plots of Lineweaver-Burk slopes, benzylamine 0.03-0.6 mM) and 3.57 ± 0.6 µM at Recombinant human MAO-A [5]. The “Mode of MAO-A inhibition” value at Recombinant human MAO-A [5] is recorded as “competitive inhibitor”.
Consider `COc1cccc2nc3ccccc3nc12` [Compound 3, 1-methoxyphenazine], for which the “Inhibitory activity against MAO-B (in words)” value at human MAO-B [1] is given as “did not inhibit; also recorded: little inhibitory activity”. The remaining activity at 10 µM at human MAO-B [1] stood at 96.9 ± 2.65%; on Recombinant human MAO-A [2] it was 93.6 ± 4.11%; at BACE-1 it was 79.9 ± 0.73%; at BChE from equine serum, 97 ± 2.72%; in experiment [4], 83 ± 8.24%. At Recombinant human MAO-A [2], the “Inhibitory activity against MAO-A (in words)” value is “did not inhibit; also recorded: little inhibitory activity”.
On to `CC1CC(=O)c2c(O)cccc2O1` (stereo not shown) [HMC, 5-hydroxy-2-methyl-chroman-4-one], for which the 50% inhibitory concentration (IC50) in the experiment on MAO-B is 3.23 µM; in the experiment with MAO-A it was 14 µM.
Consider `O=c1oc2cc(O)ccc2c2ccc(O)cc12` [UroA], for which the concentration for half-maximal inhibition (IC50) in the experiment with MAO-A was 5.88 µM.
With `O=c1oc2cc(O)ccc2c2ccccc12` [UroB], the IC50 with MAO-A is 0.88 µM.
In the case of `O=c1oc2cc(O)ccc2c2cc(O)c(O)cc12` [Ur°C], the IC50 in the experiment with MAO-A is 29.6 µM.
`COc1cc(O)c2c(=O)oc3cc(O)cc(C)c3c2c1` [alternariol monomethyl ether]: in the experiment on MAO-A, the 50% inhibitory concentration (IC50) is 1.71 µM.
As to `CN1C(=N)N(C)/C(=C/c2c[nH]c3ccccc23)C1=O` [aplysinopsin], the IC50 in the experiment with MAO-A is 0.0056 µM.
